Laboratory results from patent publication USRE39155E1, “Use of 1,3-oxathiolane nucleoside analogues in the treatment of hepatitis B” (Shire BioChem Inc., priority 1991, dated 2006).
Converted amounts (≈) assume the structure as drawn. Like-named read-outs stand apart in the source and are kept apart here.

Experiments:
[1] = system: hepatitis B virus; experiment: General statement of activity against hepatitis B virus in vitro and in vivo
[2] = system: Duck hepatitis B virus; experiment: Activity against Duck hepatitis B virus in primary duck hepatocyte cultures, DHBV DNA dot-blot; format: cell-based; conditions: DHBV-infected primary duck hepatocytes
Description: The DNA from DHBV-infected hepatocytes was extracted and spotted onto a nitrocellular filter. […] The DNA was extracted from 6-cm cell culture dishes at various times post-plating. In the VC group, cells were harvested at 2, 6, 8, 10, 14, 18 and 20 days. Duplicate samples were spotted for days 14, 18 and 20. […] Drugs were added to the culture at 2 days post-plating and maintained throughout media changes every 2 days. The total intracellular DNA was extracted from cells using the standard phenol extraction method. […] The pellet of nucleic acid was washed with ethanol and dried. The DNA was dissolved in a solution containing 12.5 mM Tris HCl, pH 7.5, 10 mM EDTA, 30% glycerol and 0.01% bromophenol blue.

[3] = system: human hepatitis B virus; experiment: 2.2.15 cells (Hep G2 transfected with HBV genomic DNA), extracellular HBV DNA dot-blot after 10 day treatment; format: cell-based
Description: (ii) The method used for this test is described in detail in Korba et al. Antiviral Research 15, 217-228, 1992, and summarised below.
Hep G2 cells transfected with human hepatitis B virus genomic DNA (2.2.15 cells) were grown and maintained in RPMI-1640 culture medium containing 5% foetal bovine serum, 2 mM glutamine and 50 μg/ml gentamicin sulphate, and checked routinely for G418 resistance. Cultures of 2.2.15 cells were grown to confluence in 24 well tissue culture plates and maintained for 2 to 3 days in that condition prior to drug treatment.
These solutions were diluted as needed in culture medium.
The culture medium on the confluent cells was changed 24 hours prior to exposure to test compounds. During the 10 day treatment the culture medium was changed daily. After 10 days of treatment the culture medium was collected and frozen at −70° C. for HBV DNA analysis.
To analyse extracellular HBV DNA, 0.2 ml samples of culture medium were incubated for 20 minutes at 25° C. in 1M NaOH/10X SSC (1X SSC is 0.15M NaCl/0.015 M Sodium Citrate, pH 7.2) and then applied to nitrocellulose membranes presoaked in 20X SSC using a blotting apparatus. Samples were neutralised by washing twice with 0.5 ml of 1M Tris, pH 7.2/2M NaCl and once with 5 ml of 20X SSC. Filters were then rinsed in 2X SSC and baked at 80° C. for 1 hour under vacuum.
A purified 3.2 kb EcoRl HBV DNA fragment was labelled with [^32P]dCTP by nick translation and used as a probe to detect HBV DNA on the dot-blot by DNA hybridisation. After washing, the hybridised blot was dried and ^32P was quantified using an Ambis beta scanner.

[4] = Duck hepatitis B virus, Hepatocyte, read-out: IC50
[5] = 2.2.15 cells, 10 day treatment, extracellular HBV DNA, read-out: IC50

**Q.** What does the source list for `Nc1ccn(C2CSC(CO)O2)c(=O)n1` (racemic) [Racemate, cis-4-amino-1-(2-hydroxymethyl-1,3-oxathiolan-5-yl-(1H)-pyrimidin-2-one]?
**A.** activity against the hepatitis B virus ([1]; listed as BCH-189): active both in vitro and in vivo; activity against the hepatitis B virus ([1]; listed as compound of formula (I)): inhibit the hepatitis B virus both in vitro and in vivo

**Q.** `Nc1ccn([C@H]2CS[C@@H](CO)O2)c(=O)n1` (stereo in doubt) [Compound 3TC, (2R,cis)-4-amino-1-(2-hydroxymethyl-1,3-oxathiolan-5-yl)-(1H)-pyrimidin-2-one] was tested. Which IC50 [2, 4] did it give?
**A.** < 1 µg/mL

**Q.** What does the source list for `Nc1ccn([C@@H]2CS[C@H](CO)O2)c(=O)n1` [Compound 3TC, (2R,cis)-4-amino-1-(2-hydroxymethyl-1,3-oxathiolan-5-yl)-(1H)-pyrimidin-2-one]?
**A.** IC50 ([3]; Hepatitis B virus, HepG2, 240 h, 2.2.15 cells, 10 day treatment, extracellular HBV DNA, read-out: IC50): 5.6 µM; activity against the hepatitis B virus [1]: active both in vitro and in vivo

**Q.** `Nc1ncnc2c1ncn2[C@@H]1O[C@H](COP(=O)(O)O)[C@@H](O)[C@@H]1O` [araAMP, adenosylarabinoside-5′-monophosphate] was tested. Which IC50 [3, 5] did it give?
**A.** 2.9 µM

**Q.** With `Nc1nc2c(ncn2[C@H]2C[C@@H](CO)[C@H](O)C2)c(=O)[nH]1` [cdG, carbocyclic deoxyguanosine] as the compound, how does the IC50 [3, 5] read?
**A.** 0.034 µM

**Q.** With `Nc1ccn([C@H]2CC[C@@H](CO)O2)c(=O)n1` [ddC, 2′,3′-dideoxycytidine] as the compound, how does the IC50 ([3]; Hepatitis B virus, HepG2, 240 h, read-out: IC50 μM) read?
**A.** 2.2 µM

**Q.** For `Nc1nc(N)c2ncn([C@H]3CC[C@@H](CO)O3)c2n1` [ddDAPR, 2,6-diaminopurine-9-β-D-2′,3′-dideoxyribofuranoside], which “IC50” value [2] is on record?
**A.** 0.07 µg/mL (≈ 0.28 µM)

**Q.** With `Nc1nc2c(ncn2[C@H]2CC[C@@H](CO)O2)c(=O)[nH]1` [ddG, 2′,3′-dideoxy-guanosine] as the compound, how does the IC50 [2, 4] read?
**A.** 0.07 µg/mL (≈ 0.279 µM)
